Key:
[1] = molecular target: T1, Human PDGFRα, cytoplasmic domain (GST-PDGFRα) (Homo sapiens, UniProt P16234); experiment: Human PDGFRα biochemical inhibition assay (off-chip Mobility Shift Assay)
T1 construct: made in house

[2] = molecular target: T2, Human PDGFRβ, cytoplasmic domain (GST-PDGFRβ) (Homo sapiens, UniProt P09619); experiment: Human PDGFRβ biochemical inhibition assay (off-chip Mobility Shift Assay)
T2 construct: made in house
In short: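 GST-tagged cytoplasmic domain (aa 557-1106) from baculovirus was incubated 1 h at room temperature with compound, CSKtide, ATP at Km and Mg²⁺ in HEPES buffer, pH 7.5. Phosphorylated and unphosphorylated peptide were separated by off-chip mobility shift, and the product ratio P/(P+S) gave percent inhibition.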

T1 sequence (P16234 550-1089 T674I): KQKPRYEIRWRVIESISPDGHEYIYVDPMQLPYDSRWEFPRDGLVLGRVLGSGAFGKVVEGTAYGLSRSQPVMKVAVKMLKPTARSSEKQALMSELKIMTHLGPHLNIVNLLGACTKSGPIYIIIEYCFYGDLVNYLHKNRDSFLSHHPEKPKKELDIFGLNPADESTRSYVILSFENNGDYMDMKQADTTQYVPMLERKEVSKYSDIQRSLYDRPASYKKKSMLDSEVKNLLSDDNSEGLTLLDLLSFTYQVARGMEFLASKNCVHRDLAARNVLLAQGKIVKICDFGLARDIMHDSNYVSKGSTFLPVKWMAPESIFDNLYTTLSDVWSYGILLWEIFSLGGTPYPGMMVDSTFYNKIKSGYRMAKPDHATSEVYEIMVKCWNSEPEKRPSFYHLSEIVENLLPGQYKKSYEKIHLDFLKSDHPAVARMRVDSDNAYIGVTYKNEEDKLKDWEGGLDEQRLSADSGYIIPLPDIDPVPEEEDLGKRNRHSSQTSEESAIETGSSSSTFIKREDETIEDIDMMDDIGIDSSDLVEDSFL
T2 sequence (P09619 with tags, fused parts or gaps): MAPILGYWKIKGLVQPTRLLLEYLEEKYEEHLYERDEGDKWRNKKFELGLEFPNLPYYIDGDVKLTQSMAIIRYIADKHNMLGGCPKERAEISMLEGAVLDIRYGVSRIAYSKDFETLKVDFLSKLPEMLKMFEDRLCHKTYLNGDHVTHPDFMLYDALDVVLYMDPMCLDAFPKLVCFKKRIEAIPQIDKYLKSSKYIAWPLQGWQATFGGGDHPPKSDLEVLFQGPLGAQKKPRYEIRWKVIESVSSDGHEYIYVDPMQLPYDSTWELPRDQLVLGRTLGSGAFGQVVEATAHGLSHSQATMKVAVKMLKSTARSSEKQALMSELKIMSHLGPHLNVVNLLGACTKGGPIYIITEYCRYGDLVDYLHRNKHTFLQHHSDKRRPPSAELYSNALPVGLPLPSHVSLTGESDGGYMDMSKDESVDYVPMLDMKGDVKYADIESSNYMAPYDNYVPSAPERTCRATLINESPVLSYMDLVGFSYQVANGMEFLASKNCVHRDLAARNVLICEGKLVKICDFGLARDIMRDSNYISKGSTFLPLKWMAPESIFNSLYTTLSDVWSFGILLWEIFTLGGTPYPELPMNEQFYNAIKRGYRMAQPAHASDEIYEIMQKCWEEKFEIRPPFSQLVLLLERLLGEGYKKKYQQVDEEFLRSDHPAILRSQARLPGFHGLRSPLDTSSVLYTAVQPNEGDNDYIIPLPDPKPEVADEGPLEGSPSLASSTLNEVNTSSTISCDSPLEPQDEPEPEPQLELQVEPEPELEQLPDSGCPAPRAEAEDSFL

Row | SMILES | IC50 [1] | IC50 [2]
1 | COc1ccc(-n2ncc3ncc(N[C@@H](C)c4cccc(NC(=O)c5cncc(C)c5)c4)nc32)cc1OC [Compound 185, (S)-N-(3-(1-((1-(3,4-dimethoxyphenyl)-1H-pyrazolo[3,4-b]pyrazin-6-yl)amino)ethyl)phenyl)-5-methylnicotinamide] | < 300 nM | < 300 nM
2 | COc1ncc(C(=O)Nc2cccc([C@H](C)Nc3cnc4cnn(C)c4n3)c2)cc1C(F)(F)F [Compound 247, (S)-6-methoxy-N-(3-(1-((1-methyl-1-pyrazolo[3,4-b]pyrazin-6-yl)amino)ethyl)phenyl)-5-(trifluoromethyl) nicotinamide] | < 300 nM | < 300 nM
3 | Cc1cncc(C(=O)Nc2cccc([C@H](C)Nc3cnc4c(n3)CCCC4)c2)c1 [Compound 44, (S)-5-methyl-N-(3-(1-((5,6,7,8-tetrahydroquinoxalin-2-yl)amino)ethyl)phenyl) nicotinamide] | < 300 nM | ≥ 1000 nM
4 | CCn1cc2ncc(N[C@@H](C)c3cccc(NC(=O)c4cnn(C5CC5)c4)c3)nc2n1 [Compound 299, (S)-1-cyclopropyl-N-(3-(1-((2-ethyl-2H-pyrazolo[3,4-b]pyrazin-6-yl)amino)ethyl)phenyl)-1H-pyrazole-4-carboxamide] | < 300 nM | 300 to 1000 nM
5 | CCOCc1cncc(C(=O)Nc2cccc([C@H](C)Nc3cnc4cnn(C)c4n3)c2)c1 [Compound 230, (S)-5-(ethoxymethyl)-N-(3-(1-((1-methyl-1H-pyrazolo[3,4-b]pyrazin-6-yl)amino)ethyl)phenyl)nicotinamide] | < 300 nM | < 300 nM
6 | Cc1cncc(C(=O)Nc2cccc([C@H](C)Nc3cnc4cn(CCF)nc4n3)c2)c1 [Compound 277, (S)-N-(3-(1-((2-(2-fluoroethyl)-2H-pyrazolo[3,4-b]pyrazin-6-yl)amino)ethyl)phenyl)-5-methylnicotinamide] | < 300 nM | < 300 nM
7 | CCOc1cncc(C(=O)Nc2cccc([C@H](C)Nc3cnc4cnn(C)c4n3)c2)c1 [Compound 242, (S)-5-ethoxy-N-(3-(1-((1-methyl-1H-pyrazolo[3,4-b]pyrazin-6-yl)amino)ethyl)phenyl)nicotinamide] | < 300 nM | < 300 nM
8 | C=C(C)c1ncc(C(=O)Nc2cccc([C@H](C)Nc3cnc4cnn(C)c4n3)c2)cc1C [Compound 216, (S)-5-methyl-N-(3-(1-((1-methyl-1H-pyrazolo[3,4-b]pyrazin-6-yl)amino)ethyl)phenyl)-6-(prop-1-en-2-yl) nicotinamide] | < 300 nM | < 300 nM
9 | Cc1cncc(C(=O)Nc2cccc([C@H](C)Nc3cnc4cnn(C)c4c3)c2)c1 [Compound 89, (S)-5-methyl-N-(3-(1-((1-methyl-1H-pyrazolo[4,3-b]pyridin-6-yl)amino)ethyl)phenyl)nicotinamide] | < 300 nM | 300 to 1000 nM
10 | Cc1cncc(C(=O)Nc2cccc([C@H](C)Nc3cnc4ccn(CCO)c4n3)c2)c1 [Compound 83, (S)-N-(3-(1-((5-(2-hydroxyethyl)-5H-pyrrolo[2,3-6]pyrazin-3-yl)amino)ethyl)phenyl)-5-methylnicotinamide] | < 300 nM | ≥ 1000 nM
11 | C[C@H](Nc1cnc2cnn(C)c2n1)c1cccc(NC(=O)c2ccc(C3CC3)nc2)c1 [Compound 116, (S)-6-cyclopropyl-N-(3-(1-((1-methyl-1H-pyrazolo[3,4-b]pyrazin-6-yl)amino)ethyl)phenyl)nicotinamide] | < 300 nM | < 300 nM
12 | CC(=O)Oc1cccc(C(=O)Nc2cccc([C@H](C)Nc3cnc4cnn(C)c4n3)c2)c1 [Compound 215, (S)-3-((3-(1-((1-methyl-1H-pyrazolo[3,4-b]pyrazin-6-yl)amino)ethyl)phenyl)carbamoyl) phenyl acetate] | < 300 nM | < 300 nM
13 | C[C@H](Nc1cnc2cnn(C)c2n1)c1cccc(NC(=O)c2ccc(S(C)(=O)=O)nc2)c1 [Compound 221, (S)-N-(3-(1-((1-methyl-1H-pyrazolo[3,4-b]pyrazin-6-yl)amino)ethyl)phenyl)-6-(methylsulfonyl)nicotinamide] | < 300 nM | < 300 nM
14 | C[C@H](Nc1cnc2cnn(C)c2n1)c1cccc(NC(=O)[C@H]2C[C@H]2C(F)(F)F)c1 [Compound 53, (1S,2R)-N-(3-((S)-1-((1 methyl-1H-pyrazolo[3,4-d]pyrazin-6-yl)amino)ethyl)phenyl)-2-(trifluoromethyl)cyclopropane-1-carboxamide] | ≥ 1000 nM | ≥ 1000 nM
15 | COC(=O)c1ccc(C(=O)Nc2cccc([C@H](C)Nc3cnc4cnn(C)c4n3)c2)cc1Br [Compound 197, methyl (S)-2-bromo-4-((3-(1-((1-methyl-1H-pyrazolo[3,4-b]pyrazin-6-yl)amino)ethyl)phenyl)carbamoyl)benzoate] | < 300 nM | < 300 nM

Other lines, results leading:

Row | IC50 [1] | IC50 [2] | SMILES
16 | < 300 nM | < 300 nM | CCn1cc2ncc(N[C@@H](C)c3cc(NC(=O)c4cnc(C5CC5)c(C)c4)ccc3F)nc2n1 [Compound 322, (S)-6-cyclopropyl-N-(3-(1-((2-ethyl-2H-pyrazolo[3,4-b]pyrazin-6-yl)amino)ethyl)-4-fluorophenyl)-5-methylnicotinamide]
17 | < 300 nM | < 300 nM | CCn1cc2ncc(N[C@@H](C)c3cc(NC(=O)c4ccc(CN5CCOCC5)c(Cl)c4)ccc3F)nc2n1 [Compound 427, (S)-3-chloro-N-(3-(1-((2-ethyl-2H-pyrazolo[3,4-b]pyrazin-6-yl)amino)ethyl)-4-fluorophenyl)-4-(morpholinomethyl)benzamide]
18 | ≥ 1000 nM | ≥ 1000 nM | CCn1cc2ncc(N[C@@H](C)c3cc(NC(=O)Cc4ccc(C(C)(C)O)cn4)ccc3C)nc2n1 [Compound 705, (S)-N-(3-(1-((2-ethyl-2H-pyrazolo[3,4-b]pyrazin-6-yl)amino)ethyl)-4-methylphenyl)-2-(5-(2-hydroxypropan-2-yl)pyridin-2-yl)acetamide]
19 | < 300 nM | < 300 nM | CCn1cc2ncc(N[C@@H](C)c3cccc(NC(=O)c4ccc(N5CCOCC5)c(F)c4)c3)nc2n1 [Compound 366, (S)-N-(3-(1-((2-ethyl-2H-pyrazolo[3,4-b]pyrazin-6-yl)amino)ethyl)phenyl)-3-fluoro-4-morpholinobenzamide]
20 | < 300 nM | < 300 nM | CCn1cc2ncc(N[C@@H](C)c3cccc(NC(=O)c4ccc(CN5CC(O)C5)c(Cl)c4)c3)nc2n1 [Compound 487, (S)-3-chloro-N-(3-(1-((2-ethyl-2H-pyrazolo[3,4-b]pyrazin-6-yl)amino)ethyl)phenyl)-4-((3-hydroxyazetidin-1-yl)methyl) benzamide]
21 | < 300 nM | < 300 nM | Cc1c[nH]c2ncc(N[C@@H](C)c3cccc(NC(=O)c4cnn(C(F)F)c4)c3)nc12 [Compound 561, (S)-1-(difluoromethyl)-N-(3-(1-((7-methyl-5H-pyrrolo[2,3-b]pyrazin-2-yl)amino)ethyl)phenyl)-1H-pyrazole-4-carboxamide]
22 | < 300 nM | 300 to 1000 nM | CCn1cc2ncc(N[C@@H](C)c3cccc(NC(=O)Cc4ccc(F)c(C)n4)c3)nc2n1 [Compound 699, (S)-N-(3-(1-((2-ethyl-2H-pyrazolo[3,4-b]pyrazin-6-yl)ainino)ethyl)phenvl)-2-(5-fluoro-6-methylpyridin-2-yl) acetamide]
23 | < 300 nM | < 300 nM | Cc1cncc(C(=O)Nc2cccc([C@H](C)Nc3cnc4ccsc4n3)c2)c1 [Compound 607]
24 | < 300 nM | 300 to 1000 nM | C[C@H](Nc1cnc2cnn(C)c2n1)c1cccc(NC(=O)Nc2cccnc2)c1 [Compound 730, (S)-1-(3-(1-((1-methyl-1H-pyrazolo[3,4-b]pyrazin-6-yl)amino)ethyl)phenyl)-3-(pyridin-3-yl)urea]
25 | < 300 nM | < 300 nM | CCn1cc2ncc(N[C@@H](C)c3cccc(NC(=O)c4ccc(Cn5ccnc5)c(C)c4)c3)nc2n1 [Compound 435, (S)-4-((1H-imidazol-1-yl)methyl)-N-(3-(1-((2-ethyl-2H-pyrazolo[3,4-b]pyrazin-6-yl)amino)ethyl)phenyl)-3-methylbenzamide]
26 | < 300 nM | < 300 nM | CCn1cc2ncc(N[C@@H](C)c3cc(NC(=O)c4ccc(NC)nc4)ccc3F)nc2n1 [Compound 337, (S)-N-(3-(1-((2-ethyl-2H-pyrazolo[3,4-b]pyrazin-6-yl)amino)ethyl)-4-fluorophenyl)-6-(methylamino)nicotinamide]
27 | < 300 nM | ≥ 1000 nM | CCc1ccc(CC(=O)Nc2cccc([C@H](C)Nc3cnc4cn(CC)nc4n3)c2)nc1 [Compound 712, (S)-N-(3-(1-((2-ethyl-2H-pyrazolo[3,4-b]pyrazin-6-yl)amino)ethyl)phenyl)-2-(5-ethylpyridin-2-yl)acetamide]
28 | < 300 nM | < 300 nM | CCn1cc2ncc(N[C@@H](C)c3cccc(NC(=O)c4cnc(C(N)=O)s4)c3)nc2n1 [Compound 365, (S)-N5-(3-(1-((2-ethyl-2H-pyrazolo[3,4-b]pyrazin-6-yl)amino)ethyl)phenyl)thiazole-2,5-dicarboxamide]
29 | < 300 nM | < 300 nM | Cc1n[nH]c2ncc(N[C@@H](C)c3cccc(NC(=O)c4cnc(C(F)(F)F)s4)c3)nc12 [Compound 540, (S)-N-(3-(1-((3-methyl-1H-pyrazolo[3,4-b]pyrazin-5-yl)amino)ethyl)phenyl)-2-(trifluoromethyl)thiazole-5-carboxamide]
30 | < 300 nM | 300 to 1000 nM | Cc1cncc(C(=O)Nc2cccc([C@H](C)Nc3cncc4c3ccn4-c3cnn(C)c3)c2)c1 [Compound 748, (S)-5-methyl-N-(3-(1-((1-(1-methyl-1H-pyrazol-4-yl)-1H-pyrrolo[2,3-c]pyridin-4-yl)amino)ethyl)phenyl) nicotinamide]

Source: patent publication US20230102554A1 (GB002, INC., priority 2019, published 2023)
